Laboratory results as given in patent US20070060512A1, “Dipeptidyl-peptidase protected protein” (priority 2003, published 2007).
Where no end group is shown, it is not given here.

Legend:
Zucker rats [1] = test: Fasting glucose of Zucker rats without glucose administration; assay type: in vivo, rat; conditions: versus untreated animals
From the text: In a further experiment, modified H-GLP-1 or H-GLP-1/mTf is used to normalize the high fasting glucose of the Zucker rats without glucose administration.

Zucker rats [2] = test: Glucose Tolerance Test in Zucker rats; assay type: in vivo, rat; conditions: fasted Zucker rats, subcutaneous injection 30 minutes before glucose 1.5 mg/g body weight; versus untreated animals
Procedure: In this Example, modified GLP-1/mTf of the present invention is used as a therapeutic agent to treat diabetes. Modified GLP-1/mTf is administered to Zucker rats, a standard animal model for type II diabetes. Zucker rats have abnormally high blood glucose levels. […] Zucker rats are fasted overnight and then treated with H-GLP-1 or H-GLP-1 fused to transferrin (H-GLP-1/mTf). Thirty minutes after subcutaneous injection of H-GLP-1 or H-GLP-1/mTf, the animals are subjected to a Glucose Tolerance Test (GTT). For this test, fasted animals are fed glucose solution (1.5 mg/g body weight), and the blood glucose is measured at appropriate time intervals.

recombinant human DPP-IV = molecular target: T1, recombinant human DPP-IV (Homo sapiens, UniProt P27487); test: Dipeptidylpeptidase-IV treatment of mTf fusion proteins, cyclic AMP stimulation assay in CHO-GLP1R cells; assay type: in vitro ADME; conditions: 2 μM fusion protein, DPP-IV 1 μg/μL, room temperature 2 hours; cAMP in CHO-GLP1R cells
T1 construct: purchased R&D Systems
T1 sequence (P27487 whole entry, the tested form may be a part): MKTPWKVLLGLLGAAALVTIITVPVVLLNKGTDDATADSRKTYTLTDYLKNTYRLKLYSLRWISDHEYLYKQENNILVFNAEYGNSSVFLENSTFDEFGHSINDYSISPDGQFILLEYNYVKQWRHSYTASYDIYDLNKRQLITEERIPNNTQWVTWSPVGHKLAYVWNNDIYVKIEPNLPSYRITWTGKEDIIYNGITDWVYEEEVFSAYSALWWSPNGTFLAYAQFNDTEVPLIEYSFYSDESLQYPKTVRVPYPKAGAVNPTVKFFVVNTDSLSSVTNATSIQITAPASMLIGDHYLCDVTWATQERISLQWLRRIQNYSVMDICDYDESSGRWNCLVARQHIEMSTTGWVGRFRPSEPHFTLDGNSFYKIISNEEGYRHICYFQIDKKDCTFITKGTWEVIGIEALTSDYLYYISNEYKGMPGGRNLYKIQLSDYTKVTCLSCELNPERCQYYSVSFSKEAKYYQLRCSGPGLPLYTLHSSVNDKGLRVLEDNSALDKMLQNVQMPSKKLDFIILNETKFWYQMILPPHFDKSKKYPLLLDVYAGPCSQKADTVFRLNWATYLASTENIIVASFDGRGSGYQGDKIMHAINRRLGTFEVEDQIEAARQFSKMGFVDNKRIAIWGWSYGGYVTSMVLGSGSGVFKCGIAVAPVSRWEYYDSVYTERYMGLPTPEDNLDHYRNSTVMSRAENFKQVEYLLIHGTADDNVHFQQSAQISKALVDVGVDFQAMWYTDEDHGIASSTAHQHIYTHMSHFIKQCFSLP
Procedure: Control reactions excluding DPP-IV were set-up in parallel for each fusion protein. The digests were incubated at room temperature for 2 hours, at which time the reactions were diluted 20-fold in Krebs-Ringer buffer (Biosource International) supplemented with 1 mM IBMX (Calbiochem).
Tissue culture plates (24-well) were seeded with CHO-GLP1R cells at a density of 1×10^5 cells per/well in RPMI/10% FBS medium one day prior to treatment. The next day the cells appeared uniformly distributed with an approximate confluency of 60-80 percent. One day after seeding the culture plates the cells were washed twice with Krebs-Ringer buffer (KRB) followed by incubation in KRB for 1 hr at 37° C. to lower the intracellular levels of cAMP. This was followed by incubation for 10 minutes in KRB/IBMX to inhibit intracellular enzymes that break down cAMP. Dilutions of each test compound were prepared in KRB/IBMX and triplicate wells of CHO-GLP1R cells were treated with 0.15 ml of test compound per well for exactly 50 minutes at 37° C. The treatment was halted by washing the cultures two times with ice-cold phosphate-buffered saline. […]

[3] = second N-terminal alanine replaced with serine; cited from earlier work
[4] = compared to GLP-1; cited from earlier work

Compound | fasting blood glucose level (Zucker rats [1]) | normalization of blood glucose level in Glucose Tolerance Test (Zucker rats [2]) | resistance to DPP-IV (recombinant human DPP-IV) | insulinotropic action [3] | plasma stability [4]
CC[C@H](C)[C@H](NC(=O)[C@H](Cc1ccccc1)NC(=O)[C@H](CCC(=O)O)NC(=O)[C@H](CCCCN)NC(=O)[C@H](C)NC(=O)[C@H](C)NC(=O)[C@H](CCC(N)=O)NC(=O)CNC(=O)[C@H](CCC(=O)O)NC(=O)[C@H](CC(C)C)NC(=O)[C@H](Cc1ccc(O)cc1)NC(=O)[C@H](CO)NC(=O)[C@H](CO)NC(=O)[C@@H](NC(=O)[C@H](CC(=O)O)NC(=O)[C@H](CO)NC(=O)[C@@H](NC(=O)[C@H](Cc1ccccc1)NC(=O)[C@@H](NC(=O)CNC(=O)[C@H](CCC(=O)O)NC(=O)[C@H](C)NC(=O)[C@H](Cc1c[nH]cn1)NC(=O)[C@@H](N)Cc1c[nH]cn1)[C@@H](C)O)[C@@H](C)O)C(C)C)C(=O)N[C@@H](C)C(=O)N[C@@H](Cc1c[nH]c2ccccc12)C(=O)N[C@@H](CC(C)C)C(=O)N[C@H](C(=O)N[C@@H](CCCCN)C(=O)NCC(=O)N[C@@H](CCCNC(=N)N)C(=O)O)C(C)C [H-GLP-1] | significant drop | faster normalization of blood glucose level | – | – | –
H-GLP-1/mTf: H-GLP-1(7-36) fused to modified transferrin (mTf), expressed in Saccharomyces from pREX0368 (HHAEGTFTSDVSSYLEGQAAKEFIAWLVKGR; also: fused to modified transferrin (mTf)) | significant drop | faster normalization of blood glucose level | more resistant to DPP-IV than GLP-1/mTf | – | –
[Ser^8]GLP-1: GLP-1 analog in which the second N-terminal alanine is replaced with serine (Ritzel et al.) (HSEGTFTSDVSSYLEGQAAKEFIAWLVKGRG; Glucagon-like peptide 1(7-37); UniProt P01275 98-128, looked up, variant A8S) | – | – | – | did not impair the insulinotropic action | increased plasma stability as compared to GLP-1
